The values below come from patent US20190054054A1, “Methods reducing or preventing oxidation of high density lipoprotein (HDL)” (Amarin Pharmaceuticals Ireland Limited, priority 2017, published 2019).

Test [1] deals with HUVECs. Briefly: NO and ONOO^− release from HUVECs pretreated with agents, then exposed to oxLDL (Example 11, Objective 1). The conditions noted are these: pretreatment 30 min, agents at 10 μM, then oxLDL 11 mg/dL up to 3 hr; for NO / ONOO^−: calcium ionophore 1.0 μM. The class given is cell-based, human. The method, then:
(§1) The omega-3 fatty acid, cis-5,8,11,14,17-eicosapentaenoic acid (EPA) and docosahexaenoic acid (DHA) were purchased from Sigma-Aldrich (Saint Louis, Mo.) and solubilized in redistilled ethanol to 11 mM under nitrogen atmosphere. EPA and DHA stock solutions were stored at −20° C. until use.
Human umbilical vein endothelial cells (HUVECs) were obtained from healthy, female donors and isolated into primary, proliferating cell cultures (Clonetics, San Diego, Calif.). […] The confluent cells (4 to 5×10^5 cells/35 mm dish) were plated with minimum essential medium containing 3 mM L-arginine and 0.1 mM BH4 [(6R)-5,6,7,8-tetrahydrobiopterin]. Before experimental use, the cells (from second or third passage) were rinsed twice with Tyrode-HEPES buffer with 1.8 mM CaCl2.
Venous blood was collected from healthy volunteers into vacutainer tubes containing sodium EDTA. […] The LDL subfraction was retained for additional experimentation. Plasma and lipoprotein fractions were maintained at 4° C. and protected from excessive exposure to light. Prior to oxidation experiments, EDTA was removed from the lipoprotein fraction using PD-10 desalting columns (GE Healthcare, Piscataway N.J.). After equilibration of the column with phosphate buffered saline (PBS), 2.5 mL of the lipoprotein fraction was loaded on the column and the flow-through discarded. The lipoprotein was then eluted with 3 mL of PBS. The LDL fractions were further diluted with PBS to obtain a 100 μg/mL apoB100 concentration.
LDL underwent oxidation following the addition of 10 μM CuSO4. To measure oxidation, 100 μL aliquots were removed and combined with 1.0 mL thiobarbituric acid (0.5%), 10 μL trichloroacetic acid (5%), 10 μL BHT (5 mg/mL in methanol), and 10 μL EDTA (5 mM). […] Sample TBARS concentrations were determined spectrophotometrically by measuring sample absorbances against a standard curve derived from the hydrolysis of 1,1,3,3-tetramethoxypropane.
Concurrent measurements of NO and ONOO^− were performed with tandem electrochemical nanosensors combined into one working unit with a total diameter of 200-400 nm. Their design is based on previously developed and chemically modified carbon-fiber technology. Each of the nanosensors was made by depositing a sensing material on the tip of a carbon fiber (length 4 to 5 μm, diameter 100-200 nm). The fibers were sealed with nonconductive epoxy and electrically connected to copper wires with conductive silver epoxy. Conductive films of polymeric Ni(II) tetrakis (3-methoxy-4-hydroxyphenyl) porphyrin and Mn(III) [2.2] paracyclophanyl-porphyrin were used for the NO and ONOO^− sensors, respectively.
The amperometric method (with a response time of 0.1 ms) provides a quantitative signal (current) that is directly proportional to changes (from basal levels) in NO or ONOO^− concentration. Amperometric measurements were performed with a Gamry III double-channel potentiostat. Basal NO or ONOO^− levels were measured by differential pulse voltammetry in separate experiments.
All measurements of NO and ONOO^− were performed on intact endothelial cells. The NO/ONOO^− nanosensor module was positioned 5±2 μm from the surface of each individual endothelial cell using a computer-controlled M3301 micromanipulator (x-y-z resolution of 0.2 μm) and microscope (both from World Precision Instruments, Berlin, Germany) fitted with a CD camera. […] Cells will then be treated with calcium ionophore (to maximally stimulate the release of nitrous molecules) and monitored continuously for changes in amperometric current.
Data are presented as mean+S.D. for (N) separate samples or treatment groups. Differences between groups were analyzed using the two-tailed, Student's t-test (for comparisons between only two groups) or ANOVA followed by Dunnett or Student-Newman-Keuls multiple comparisons post-hoc analysis (for comparisons between three or more groups). Alpha error was set to 0.05 in this study.
NO and ONOO^− release were measured following stimulation with calcium.

The test system of test [2] is HUVECs. The test is described as follows: NO and ONOO^− release from pretreated HUVECs exposed to native LDL undergoing oxidation (Example 11, Objective 3). The class given is cell-based, human. The conditions noted are these: cells pretreated 30 min, agents each at 10 μM; native LDL 11 mg/dL pretreated with the same agents under auto-oxidation; 60 min. The method, then:
as §1
Human umbilical vein endothelial cells (HUVECs) were obtained from healthy, female donors and isolated into primary, proliferating cell cultures (Clonetics, San Diego, Calif.). The cells were incubated in 95% air/5% CO2 at 37° C. and passaged by an enzymatic (trypsin) procedure. The confluent cells (4 to 5×10^5 cells/35 mm dish) were plated with minimum essential medium containing 3 mM L-arginine and 0.1 mM BH4 [(6R)-5,6,7,8-tetrahydrobiopterin]. Before experimental use, the cells (from second or third passage) were rinsed twice with Tyrode-HEPES buffer with 1.8 mM CaCl2.
Venous blood was collected from healthy volunteers into vacutainer tubes containing sodium EDTA. Plasma was separated by centrifugation at 3000 g for 25 min at 4° C. and adjusted to a density of 1.020 g/mL with KBr. Triglyceride-rich lipoproteins (TGRL) and LDL fractions were isolated by sequential centrifugation at 70,000 rpm at 4° C. in a Beckman LE-80 ultracentrifuge using a Beckman 50.4Ti rotor (Beckman Coulter, Inc., Fullerton, Calif.). The TGRL fraction (with a relative density of <1.020) was aspirated from the top of the centrifugate and discarded, leaving an LDL-enriched infranate (with a relative density of 1.020-1.063). The LDL subfraction was retained for additional experimentation. Plasma and lipoprotein fractions were maintained at 4° C. and protected from excessive exposure to light. Prior to oxidation experiments, EDTA was removed from the lipoprotein fraction using PD-10 desalting columns (GE Healthcare, Piscataway N.J.). After equilibration of the column with phosphate buffered saline (PBS), 2.5 mL of the lipoprotein fraction was loaded on the column and the flow-through discarded. The lipoprotein was then eluted with 3 mL of PBS. The LDL fractions were further diluted with PBS to obtain a 100 μg/mL apoB100 concentration.
LDL underwent oxidation following the addition of 10 μM CuSO4. […] Sample TBARS concentrations were determined spectrophotometrically by measuring sample absorbances against a standard curve derived from the hydrolysis of 1,1,3,3-tetramethoxypropane. […]
The amperometric method (with a response time of 0.1 ms) provides a quantitative signal (current) that is directly proportional to changes (from basal levels) in NO or ONOO^− concentration. […] Basal NO or ONOO^− levels were measured by differential pulse voltammetry in separate experiments. […]

Consider `CC/C=C\C/C=C\C/C=C\C/C=C\C/C=C\C/C=C\CCC(=O)O` [DHA, docosahexaenoic acid], for which the NO with HUVECs [1] is recorded as 378 ± 5; with HUVECs [2], 406 ± 40. Also, the “ONOO^−” value was 229 ± 16 with HUVECs [1] and 212 ± 26 with HUVECs [2].
Consider `CC/C=C\C/C=C\C/C=C\C/C=C\C/C=C\CCCC(=O)O` [EPA, cis-5,8,11,14,17-eicosapentaenoic acid], for which the NO in the test on HUVECs [1] was 394 ± 43; with HUVECs [2] it was 419 ± 37. Besides, the “ONOO^−” value in the test with HUVECs [1] is recorded as 228 ± 10; with HUVECs [2], 207 ± 24.
In the case of `Cc1ccc(C)c(OCCCC(C)(C)C(=O)O)c1` [gemfibrozil], in the test on HUVECs [1], the “NO/ONOO^− Ratio” value was found to be 1.65±0.13, the NO was found to be 377 ± 24 and the “ONOO^−” value came out at 228 ± 11. Further, the “NO/ONOO^− Ratio” value in the test with HUVECs [1] (listed as Gemfib) stood at 1.65 ± 0.13.
With `O=C(O)c1cccnc1` [niacin, nicotinic acid], in the test with HUVECs [1], the “NO/ONOO^− Ratio” value is listed as 1.45±0.14, the NO was 346 ± 17 and the “ONOO^−” value is reported as 238 ± 20. In the test with HUVECs [1] (listed as Niacin), the “NO/ONOO^− Ratio” value stood at 1.45 ± 0.14.
